Measurements taken from PubChem BioAssay (NCI).
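GI50 = concentration required for 50% inhibition of growth. The concentration for full growth arrest is given as TGI.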

Legend:
Assay in all cases: DTP human tumour cell line panel, 384-well format
[1] = test system: 786-0 renal
[2] = test system: A498 renal
[3] = test system: A549 NSCLC
[4] = test system: ACHN renal
[5] = test system: BT-549 breast
[6] = test system: CAKI-1 renal
[7] = test system: CCRF-CEM leukemia
[8] = test system: COLO 205 colon
[9] = test system: DU-145 prostate
[10] = test system: EKVX NSCLC
[11] = test system: HCC-2998 colon
[12] = test system: HCT-15 colon
[13] = test system: HL-60(TB) leukemia
[14] = test system: HOP-62 NSCLC
[15] = test system: HOP-92 NSCLC
[16] = test system: HS 578T breast
[17] = test system: HT29 colon
[18] = test system: IGROV1 ovarian
[19] = test system: KM12 colon
[20] = test system: M14 melanoma
[21] = test system: MALME-3M melanoma
[22] = test system: MCF7 breast
[23] = test system: MDA-MB-231 breast
[24] = test system: MDA-MB-435 melanoma
[25] = test system: MDA-MB-468 breast
[26] = test system: MOLT-4 leukemia
[27] = test system: NCI-H226 lung
[28] = test system: NCI-H23 lung
[29] = test system: NCI-H322M lung
[30] = test system: NCI-H460 NSCLC
[31] = test system: NCI-H522 lung
[32] = test system: NCI/ADR-RES ovarian
[33] = test system: OVCAR-3 ovarian
[34] = test system: OVCAR-4 ovarian
[35] = test system: OVCAR-5 ovarian
[36] = test system: OVCAR-8 ovarian
[37] = test system: PC-3 prostate
[38] = test system: RPMI-8226 leukemia
[39] = test system: RXF 393 renal
[40] = test system: SF-268 CNS
[41] = test system: SF-295 CNS
[42] = test system: SF-539 CNS
[43] = test system: SK-MEL-2 melanoma
[44] = test system: SK-MEL-28 melanoma
[45] = test system: SK-MEL-5 melanoma
[46] = test system: SK-OV-3 ovarian
[47] = test system: SN12C renal
[48] = test system: SNB-19 CNS
[49] = test system: SNB-75 CNS
[50] = test system: SR leukemia
[51] = test system: SW-620 colon
[52] = test system: T-47D breast
[53] = test system: TK-10 renal
[54] = test system: U251 glioblastoma
[55] = test system: UACC-257 melanoma
[56] = test system: UACC-62 melanoma

With `CCc1ccc(/C=C2/SC(=S)NC2=O)cc1` the GI50 [1] was 28.6 µM, the TGI [1] was 88 µM and the GI50 [2] was 16.7 µM. It also gave a TGI [2] of 33.1 µM, a GI50 [3] of 19.8 µM and a TGI [3] of 46.2 µM. It also gave a GI50 [4] of 25 µM, a TGI [4] of 60.5 µM and a GI50 [5] of 19.7 µM. The TGI [5] was 36.1 µM, the GI50 [6] was 19.3 µM and the TGI [6] was 47.6 µM. It also gave a GI50 [7] of 16.5 µM, a TGI [7] of 30.3 µM and a GI50 [8] of 27.1 µM. The TGI [8] was 54.1 µM, the GI50 [9] was 27.7 µM and the TGI [9] was 85.3 µM. It also gave a GI50 [10] of 20.8 µM, a TGI [10] of 49.5 µM and a GI50 [11] of 21.6 µM. The TGI [11] was 43.6 µM, the GI50 [12] was 18.5 µM and the TGI [12] was 44 µM. The GI50 [13] was 20.3 µM, the TGI [13] was 34.9 µM and the GI50 [14] was 22.1 µM. It also gave a TGI [14] of 42.9 µM, a GI50 [15] of 18.1 µM and a TGI [15] of 37.9 µM. The GI50 [16] was 19.4 µM, the TGI [16] was 39.5 µM and the GI50 [17] was 24.9 µM. For the same compound, the TGI [17] was 57.2 µM, the GI50 [18] was 30.5 µM and the TGI [18] was greater than 100 µM. For the same compound, the GI50 [19] was 20.7 µM, the TGI [19] was 44.1 µM and the GI50 [20] was 19.6 µM. For the same compound, the TGI [20] was 39.6 µM, the GI50 [21] was 15.9 µM and the TGI [21] was 33.9 µM. The GI50 [22] was 26.2 µM, the TGI [22] was 68 µM and the GI50 [23] was 20.7 µM. It also gave a TGI [23] of 49.5 µM, a GI50 [24] of 21.2 µM and a TGI [24] of 44.9 µM. For the same compound, the GI50 [25] was 16.3 µM, the TGI [25] was 33.1 µM and the GI50 [26] was 16.9 µM. It also gave a TGI [26] of 30.6 µM, a GI50 [27] of 16.7 µM and a TGI [27] of 36.5 µM. The GI50 [28] was 15.7 µM, the TGI [28] was 34.6 µM and the GI50 [29] was 22.5 µM. The TGI [29] was 44.8 µM, the GI50 [30] was 17.8 µM and the TGI [30] was 33.3 µM. The GI50 [31] was 14.7 µM, the TGI [31] was 36.9 µM and the GI50 [32] was 21 µM. It also gave a TGI [32] of 45 µM, a GI50 [33] of 18 µM and a TGI [33] of 36.5 µM. The GI50 [34] was 13.6 µM, the TGI [34] was 46.9 µM and the GI50 [35] was 17.5 µM. For the same compound, the TGI [35] was 43.5 µM, the GI50 [36] was 22.8 µM and the TGI [36] was 51 µM. The GI50 [37] was 23.4 µM, the TGI [37] was 49.8 µM and the GI50 [38] was 15.6 µM. The TGI [38] was 29.1 µM, the GI50 [39] was 21.2 µM and the TGI [39] was 42.7 µM. The GI50 [40] was 19.3 µM, the TGI [40] was 45.8 µM and the GI50 [41] was 33.7 µM. It also gave a TGI [41] greater than 100 µM, a GI50 [42] of 15.9 µM and a TGI [42] of 30.8 µM. The GI50 [43] was 20.9 µM, the TGI [43] was 37.7 µM and the GI50 [44] was 24.7 µM. It also gave a TGI [44] of 55.2 µM, a GI50 [45] of 18.6 µM and a TGI [45] of 33.1 µM. The GI50 [46] was 18.5 µM, the TGI [46] was 43.2 µM and the GI50 [47] was 29.1 µM. For the same compound, the TGI [47] was 95.8 µM, the GI50 [48] was 33.4 µM and the TGI [48] was greater than 100 µM. It also gave a GI50 [49] of 21.4 µM, a TGI [49] of 51.2 µM and a GI50 [50] of 12.5 µM. For the same compound, the TGI [50] was 25.1 µM, the GI50 [51] was 24.5 µM and the TGI [51] was 59.6 µM. For the same compound, the GI50 [52] was 23.6 µM, the TGI [52] was 49.4 µM and the GI50 [53] was 26.3 µM. It also gave a TGI [53] of 74.1 µM, a GI50 [54] of 17.3 µM and a TGI [54] of 33.1 µM. For the same compound, the GI50 [55] was 21.3 µM, the TGI [55] was 42.1 µM and the GI50 [56] was 31.1 µM. The TGI [56] was 83.2 µM.
